From US20260256741A1, “ANTICANCER MALEIMIDE DERIVATIVES FOR USE WITH IMMUNE CHECKPOINT BLOCKADE” (BROWN UNIVERSITY, priority 2022, published 2026)

Assays:
Assay type in all cases: cell-based, human
[1] = system: TALL-104 cells; assay: Cytokine profiling of cell culture supernatant (Luminex 200), TALL-104
Protocol: Cells were plated at 3.5×10^4 cells in a 48-well plate (Thermo Fisher Scientific, Waltham, MA, USA) in complete medium and incubated at 37° C. with 5% CO2. At 24 hours after plating, almost all the tumor cells were adherent to the bottom of the flask and the complete medium was replaced with the drug-containing medium. […] On the day of analysis, samples were thawed and centrifuged to remove cellular debris.
Human cell line culture supernatants were analyzed using an R&D systems Human Premixed Multi-Analyte Kit (R&D Systems, Inc., Minneapolis, MN, USA) and a Luminex 200 (RRID: SCR_018025) Instrument (LX200-XPON-RUO, Luminex Corporation, Austin, TX, USA) according to the manufacturer's instructions. Sample levels of TNF-α, 4-1BB/TNFRSF9/CD137, IL-8/CXCL8, Ferritin, IFN-β, IL-10, CCL2/JE/MCP-1, VEGF, CXCL13/BLC/BCA-1, IFN-γ, CCL20/MIP-3 α, CCL3/MIP-1 α, CCL22/MDC, CCL4/MIP-1 β, Fas Ligand/TNFSF6, IL-17/IL-17A, IL-2, BAFF/BLyS/TNFSF13B, GM-CSF, CXCL5/ENA-78, TRANCE/TNFSF11/RANK L, CXCL9/MIG, G-CSF, IFN-γ R1/CD119, VEGFR3/Flt-4, C-Reactive Protein/CRP, CXCL11/I-TAC, IL-21, CXCL14/BRAK, IL-6, Fas/TNFRSF6/CD95, TRAIL R3/TNFRSF10C, IL-4, CCL5/RANTES, PD-L1/B7-H1, CCL7/MCP-3/MARC, Chitinase 3-like 1, CXCL10/IP-10/CRG-2, IL-1 β/IL-1F2, IL-7, Prolactin, CCL8/MCP-2, TRAIL R2/TNFRSF10B, M-CSF, IL-15, Granzyme B, IFN-α, TREM-1, IL-12/IL-23 p40, TRAIL/TNFSF10, CCL11/Eotaxin, and IL-18/IL-1F4. Quantitative analysis with 6 standards and a minimum of 50 counts per bead region was used with the Luminex to generate analyte values reported as picograms/milliliter (pg/mL). Sample concentrations less than the lower limit of detection for each particular analyte were recoded as the lower limit value divided by ten. Sample concentrations above the upper limit of detection for a particular analyte were recoded as the upper limit of detection.

[2] = system: TALL-104 cells; assay: 10x single-cell sequencing, TALL-104; conditions: 1 μM, 24 hours vs DMSO
Protocol: Single cells were captured and 3′ single-cell gene expression libraries were conducted (Next GEM v3.1) using the 10× Genomics Chromium system by SingulOmics (SingulOmics, New York, NY, USA). Gene expression libraries were sequenced with ~200 million PE150 reads per sample on Illumina (RRID: SCR_016387) NovaSeq (Illumina, Inc., San Diego, CA, USA). After sequencing clean reads were then analyzed with human reference genome GRCh38 using Cell Ranger v6.1.2 ([RRID: SCR_017344],10× Genomics, Pleasanton, CA, USA). Data were analyzed and visualized using Loupe Browser ([RRID: SCR_018555], 10× Genomics, Pleasanton, CA, USA).

[3] = system: HCT-116 CRC cells; assay: Western blot analysis of HCT-116 CRC cells
Protocol: Recombinant Human TNF-α (Cat #300-01A, PeproTech, Rocky Hill, NJ, USA) and Recombinant Human IFN-γ (Cat #300-02, Peprotech, Rocky Hill, NJ, USA) were purchased for use in western blot analysis while rhTRAIL was generated in-house. Kim et al., J Biol Chem., 279(38):40044-52 (2004).
Cells were plated in a 6-well plate and incubated overnight before the spent media was replaced with drugged media. Drug treatment lasted for indicated durations. Protein was extracted using radioimmunoprecipitation (RIPA) assay buffer (Cat #R0278, Sigma-Aldrich, St. Louis, MO) containing cOmplete™, Mini, EDTA-free Protease Inhibitor Cocktail (Cat #4693159001, Roche, Basel, Switzerland) from sub-confluent cells. Denaturing sample buffer was added, samples were boiled at 95 degrees for 10 minutes, and an equal amount of protein lysate was electrophoresed through NuPAGE™ 4 to 12%, Bis-Tris, 1.5 mm, Mini Protein Gels (Invitrogen, Waltham, MA) then transferred to PVDF membranes. The PVDF membrane was blocked with 5% non-fat milk (Sigma-Aldrich, St. Louis, MO) in 1×TTBS. Primary antibodies were incubated with the transferred PVDF membrane in blocking buffer at 4° C. overnight. Secondary antibodies used included Goat anti-Rabbit IgG (H+L) Secondary Antibody, HRP (Cat #31460, Invitrogen, Waltham, MA), and Goat anti-Mouse IgG (H+L) Secondary Antibody, HRP (Cat #31430, Invitrogen, Waltham, MA). Signal was detected using Pierce™ ECL Western Blotting Substrate (Cat #32106, Thermo Scientific, Waltham, MA, USA) and a Syngene Imaging System (RRID: SCR_015770).

[4] = especially at later timepoints (48, 72 hr)

SMILES: Cn1cc(C2=C(c3coc4ccc(F)cc34)C(=O)NC2=O)c2cc3c(cc21)OCO3 [elraglusib, 3-(5-fluorobenzofuran-3-yl)-4-(5-methyl-5H-[1,3]dioxolo[4,5-f]indol-7-yl)-1H-pyrrole-2,5-dione]
- IFN-γ concentration in supernatant ([1]; 1 μM, 48 hours): increases
- TRAIL concentration in supernatant ([1]; 1 μM, 48 hours): increases
- granzyme B concentration in supernatant ([1]; 1 μM, 48 hours): increases
- IFN-γ in cell culture supernatant ([1]; 24 hours treatment vs DMSO): significant increase in IFN-γ
- immune cell activation marker CD69 expression [2]: increase
- immune cell chemoattractant CXCR4 expression [2]: increase
- immunosuppressive marker CHI3L1 expression [2]: decrease
- NF-κB p65 expression ([3]; as the 0-72 hour time-course progressed): decreased expression
- PD-L1 expression ([3]; as the treatment duration increased (0-72 hours)): increases in PD-L1 expression
- Mcl-1 protein expression ([3]; by the 24-hour timepoint): marked decreases in protein expression
- Bcl-2 protein expression [3, 4]: decreases in protein expression
- Survivin protein expression [3, 4]: decreases in protein expression
- cleaved PARP (cPARP) ([3]; low dose as in co-culture assays, until the 48-hour timepoint of 72-hour timecourse): little to no cleaved PARP
